Laboratory results: PubChem BioAssay AID1919008 (Molecular Pharmacology Branch, DTP, NCI, 2023)

System: DMS-114 complex spheroids with HUVEC/MSC, growth % test/control
Test: Anticancer human tumor DMS-114 cell line growth inhibition [AhR];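 note: spheroids exposed to agents for 7 days before readout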;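 for viability, T/C: 100% = DMSO vehicle control wells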
Settings: for IC50: curve of first compound; for viability, T/C: stronger effect = lower value
Source text: Multicellular complex tumor spheroid response to aryl hydrocarbon receptor antagonists in combination with a variety of drugs and investigational agents in selected tumor cell lines
The current study was undertaken to assess response to aryl hydrocarbon receptor antagonists in combination with standard-of-care drugs and investigational agents in solid tumor complex spheroid models. Complex spheroids include a stromal component modeled by human endothelial cells (HUVEC) and fibroblasts modeled by human mesenchymal stem cells (MSCs). The concentration ranges selected for each drug and investigational agent were based upon clinically achievable concentrations if the clinical Cmax of the agent was known.
Compounds. The drugs and investigational agents: BAY 2416964 (NSC825713), GNF351 (NSC835774), CH-223191 (NSC835775), CPI-455 (NSC825282), aza-TdCyd (NSC777586), decitabine (NSC127716), belinostat (NSC758774), entinostat (NSC756642), pevonedistat (NSC761192), tazemetostat (NSC777109), talazoparib (NSC765396), olaparib (NSC753686), selinexor (NSC780203), nedisertib (M3814, NSC802822), bortezomib (NSC756655), venetoclax (NSC766270), doxorubicin (NSC123127), elimusertib (BAY189344, NSC800525), ceralasertib (AZD6738, NSC777638), TAK-243 (NSC785004), alisertib (NSC759677), etoposide (NSC141540), topotecan (NSC609699), eribulin (NSC707389), gemcitabine (NSC613327), carboplatin (NSC241240), cisplatin (NSC119875), and SN-38 (NSC673596) were obtained from the National Cancer Institute (NCI) Developmental Therapeutics Program Chemical Repository (32). The FDA-approved anticancer drug set is available from the Developmental Therapeutics Program at https://dtp.cancer.gov/organization/dscb/obtaining/available plates.htm. […] The stock solutions were prepared in dimethyl sulfoxide (DMSO, Sigma-Aldrich, St. Louis, MO, cat. D2650), except for the platinum compounds which were prepared in saline (Quality Biological, Gaithersburg, MD, cat. 114-055-101), at 800-fold the tested concentration and stored at -70 degrees C prior to their use. All drugs and investigational agents were tested over a range starting from a high concentration at or near the clinical Cmax and decreasing in half-log increments. If the clinical Cmax for an agent had not been determined, the highest concentration tested was 10 microM (Table 1).
Cell Culture. All cells were maintained in an incubator at 37 degrees C and 5% CO2 with 95% humidity. The PDC lines were cultured according to standard operating procedures established by the NCI PDMR (https://pdmr.cancer.gov). Briefly, all PDCs were thawed and cultured in Matrigel-coated flasks prepared with a working solution of 1X Ham's F-12 nutrient mix, without supplementation (Invitrogen, Waltham, MA, cat. 11765054), 100 U/mL penicillin-streptomycin (Invitrogen, cat. 15140122), and 2.5% Matrigel (Corning Inc., Corning, NY, cat. 354248) for the first three passages. All PDCs were cultured in complete DMEM/F-12 media containing advanced DMEM/F-12 (Invitrogen, cat. 12634028), 4.9% defined fetal bovine serum, heat inactivated (HyClone Laboratories Inc., Logan, UT, cat. SH30070.03HI), 389 ng/mL hydrocortisone (Sigma-Aldrich, cat. H4001), 9.7 ng/mL human EGF recombinant protein (Invitrogen, cat. PHG0313), 23.4 microg/mL adenine (Sigma-Aldrich, cat. A2786), 97.3 U/mL penicillin-streptomycin (Invitrogen, cat. 15140122), 1.9 mM L-glutamine (Invitrogen, cat. 25030081), and 9.7 microM Y-27632 dihydrochloride (Tocris Bioscience, Bristol, United Kingdom, cat. 1254). The PDCs were cultured in complete DMEM/F12 media without 10 microM Y-27632 dihydrochloride for at least two passages prior to the screen. The established cell lines NCI-H1341 and […] were cultured in DMEM/F-12, HEPES (Invitrogen, cat. 11330032), 5% defined fetal bovine serum (HyClone Laboratories Inc., cat. SH30070.03), ITS premix universal culture supplement [insulin (5 microg/mL), transferrin (5 microg/mL), and selenious acid (5 ng/mL)] […]

[1] = second compound 0.1 µM, first compound 0.000949 µM
[2] = second compound 0.1 µM, first compound 0.003 µM
[3] = second compound 0.1 µM, first compound 0.00949 µM
[4] = second compound 0.1 µM, first compound 0.03 µM
[5] = second compound 0.1 µM, first compound 0.0949 µM
[6] = second compound 0.1 µM, first compound 0.3 µM
[7] = second compound 0.316 µM, first compound 0.000949 µM
[8] = second compound 0.316 µM, first compound 0.003 µM
[9] = second compound 0.316 µM, first compound 0.00949 µM
[10] = second compound 0.316 µM, first compound 0.03 µM
[11] = second compound 0.316 µM, first compound 0.0949 µM
[12] = second compound 0.316 µM, first compound 0.3 µM
[13] = second compound 1 µM, first compound 0.000949 µM
[14] = second compound 1 µM, first compound 0.003 µM
[15] = second compound 1 µM, first compound 0.00949 µM
[16] = second compound 1 µM, first compound 0.03 µM
[17] = second compound 1 µM, first compound 0.0949 µM
[18] = second compound 1 µM, first compound 0.3 µM
[19] = second compound 3.16 µM, first compound 0.000949 µM
[20] = second compound 3.16 µM, first compound 0.003 µM
[21] = second compound 3.16 µM, first compound 0.00949 µM
[22] = second compound 3.16 µM, first compound 0.03 µM
[23] = second compound 3.16 µM, first compound 0.0949 µM
[24] = second compound 3.16 µM, first compound 0.3 µM
[25] = second compound 10 µM, first compound 0.000949 µM
[26] = second compound 10 µM, first compound 0.003 µM
[27] = second compound 10 µM, first compound 0.00949 µM
[28] = second compound 10 µM, first compound 0.03 µM
[29] = second compound 10 µM, first compound 0.0949 µM
[30] = second compound 10 µM, first compound 0.3 µM

Compound: Nc1ncn(C2CC(O)C(CO)S2)c(=O)n1 (stereo not given) + Cc1ccccc1N=Nc1ccc(NC(=O)c2ccnn2C)c(C)c1
- IC50 (second compound 0.1 µM): > 300 nM
- IC50 (second compound 0.316 µM): > 300 nM
- IC50 (second compound 1 µM): > 300 nM
- IC50 (second compound 3.16 µM): > 300 nM
- IC50 (second compound 10 µM): > 300 nM
- viability, T/C [1]: 94.1%
- viability, T/C [2]: 96.7%
- viability, T/C [3]: 106%
- viability, T/C [4]: 101%
- viability, T/C [5]: 98.6%
- viability, T/C [6]: 88.6%
- viability, T/C [7]: 94.9%
- viability, T/C [8]: 96.3%
- viability, T/C [9]: 103%
- viability, T/C [10]: 105%
- viability, T/C [11]: 111%
- viability, T/C [12]: 95.5%
- viability, T/C [13]: 101%
- viability, T/C [14]: 102%
- viability, T/C [15]: 99.2%
- viability, T/C [16]: 105%
- viability, T/C [17]: 117%
- viability, T/C [18]: 98.9%
- viability, T/C [19]: 113%
- viability, T/C [20]: 93.4%
- viability, T/C [21]: 96.9%
- viability, T/C [22]: 105%
- viability, T/C [23]: 91.7%
- viability, T/C [24]: 91.3%
- viability, T/C [25]: 99.4%
- viability, T/C [26]: 97.3%
- viability, T/C [27]: 92.3%
- viability, T/C [28]: 94.3%
- viability, T/C [29]: 91.7%
- viability, T/C [30]: 74.7%

Compound: Nc1ncn(C2CC(O)C(CO)O2)c(=O)n1 (stereo not given) + Cc1cncc(-c2nc(NCCc3c[nH]c4ccccc34)c3ncn(C(C)C)c3n2)c1
- IC50 (second compound 0.1 µM): > 1000 nM
- IC50 (second compound 0.316 µM): > 1000 nM
- IC50 (second compound 1 µM): > 1000 nM
- IC50 (second compound 3.16 µM): > 1000 nM
- IC50 (second compound 10 µM): < 3.16 nM
- viability, T/C (second compound 0.1 µM, first compound 0.00316 µM): 111%
- viability, T/C (second compound 0.1 µM, first compound 0.01 µM): 88.5%
- viability, T/C (second compound 0.1 µM, first compound 0.0316 µM): 99.5%
- viability, T/C (second compound 0.1 µM, first compound 0.1 µM): 101%
- viability, T/C (second compound 0.1 µM, first compound 0.316 µM): 77%
- viability, T/C (second compound 0.1 µM, first compound 1 µM): 54.8%
- viability, T/C (second compound 0.316 µM, first compound 0.00316 µM): 90.4%
- viability, T/C (second compound 0.316 µM, first compound 0.01 µM): 93.1%
- viability, T/C (second compound 0.316 µM, first compound 0.0316 µM): 90.6%
- viability, T/C (second compound 0.316 µM, first compound 0.1 µM): 88%
- viability, T/C (second compound 0.316 µM, first compound 0.316 µM): 74.3%
- viability, T/C (second compound 0.316 µM, first compound 1 µM): 52.3%
- viability, T/C (second compound 1 µM, first compound 0.00316 µM): 97.8%
- viability, T/C (second compound 1 µM, first compound 0.01 µM): 91.7%
- viability, T/C (second compound 1 µM, first compound 0.0316 µM): 81.5%
- viability, T/C (second compound 1 µM, first compound 0.1 µM): 94.3%
- viability, T/C (second compound 1 µM, first compound 0.316 µM): 86.4%
- viability, T/C (second compound 1 µM, first compound 1 µM): 62%
- viability, T/C (second compound 3.16 µM, first compound 0.00316 µM): 82.9%
- viability, T/C (second compound 3.16 µM, first compound 0.01 µM): 86.5%
- viability, T/C (second compound 3.16 µM, first compound 0.0316 µM): 86.5%
- viability, T/C (second compound 3.16 µM, first compound 0.1 µM): 81.7%
- viability, T/C (second compound 3.16 µM, first compound 0.316 µM): 85.2%
- viability, T/C (second compound 3.16 µM, first compound 1 µM): 68.8%
- viability, T/C (second compound 10 µM, first compound 0.00316 µM): 31.6%
- viability, T/C (second compound 10 µM, first compound 0.01 µM): 36.9%
- viability, T/C (second compound 10 µM, first compound 0.0316 µM): 44.8%
- viability, T/C (second compound 10 µM, first compound 0.1 µM): 45.5%
- viability, T/C (second compound 10 µM, first compound 0.316 µM): 35.6%
- viability, T/C (second compound 10 µM, first compound 1 µM): 37.1%

Compound: CC(C)CC(NC(=O)C(Cc1ccccc1)NC(=O)c1cnccn1)B(O)O (stereo not given) + Cc1cncc(-c2nc(NCCc3c[nH]c4ccccc34)c3ncn(C(C)C)c3n2)c1
- IC50 (second compound 0.1 µM): 5.45 nM
- IC50 (second compound 0.316 µM): 5.21 nM
- IC50 (second compound 1 µM): 5.38 nM
- IC50 (second compound 3.16 µM): 4.67 nM
- IC50 (second compound 10 µM): < 0.949 nM
- viability, T/C [1]: 113%
- viability, T/C [2]: 102%
- viability, T/C [3]: 2.1%
- viability, T/C [4]: 0.04%
- viability, T/C [5]: 0.04%
- viability, T/C [6]: 0.16%
- viability, T/C [7]: 102%
- viability, T/C [8]: 94.3%
- viability, T/C [9]: 1.97%
- viability, T/C [10]: 0.04%
- viability, T/C [11]: 0.03%
- viability, T/C [12]: 0.15%
- viability, T/C [13]: 101%
- viability, T/C [14]: 99.7%
- viability, T/C [15]: 1.76%
- viability, T/C [16]: 0.45%
- viability, T/C [17]: 0.02%
- viability, T/C [18]: 0.26%
- viability, T/C [19]: 93.8%
- viability, T/C [20]: 80.7%
- viability, T/C [21]: 0.87%
- viability, T/C [22]: 0.04%
- viability, T/C [23]: 0.04%
- viability, T/C [24]: 0.18%
- viability, T/C [25]: 37.7%
- viability, T/C [26]: 28.9%
- viability, T/C [27]: 0.42%
- viability, T/C [28]: 0.21%
- viability, T/C [29]: 0.21%
- viability, T/C [30]: 0.3%
